# Reference: paper PMC5867665, “Targeting Multiple Effector Pathways in Pancreatic Ductal Adenocarcinoma with a G-Quadruplex-Binding Small Molecule” (Journal of Medicinal Chemistry, 2018)
# Key:
# PANC-1 cells = experiment: BG4 and 53BP1 immunofluorescence microscopy; type: cell-based, human
# From the text: Because many established G4-stabilizing ligands induce transcription and replication-coupled DNA damage in the vicinity of G4-forming sequences,[44] we investigated whether CM03 treatment affects cellular G4 occurrence and/or induces a DNA damage response. To do this, we treated asynchronous PANC-1 cells with CM03 and performed immunofluorescence staining using the G4-specific antibody BG4[18] and an antibody against the DNA damage and double-strand break (DSB) marker 53BP1[45] followed by 3D image construction and analysis. […] This further confirms that CM03 has a direct action at G4 sites to increase G4 stabilization. Consistent with the capability of unresolved endogenous genomic G4 sites[46] and small molecule-stabilized G4s to obstruct DNA replication,[44] a 2-fold increase in the number of 53BP1 foci was only apparent after 24 h treatment with CM03 (11 ± 2 compared to 21 ± 3 53BP1 foci) (Figure 4a,c). To determine if CM03 induced DNA damage directly at G4 sites, we calculated the extent of co-localization between BG4 and 53BP1 foci using object-based image co-localization analysis.
# BG4 and 53BP1 immunofluorescence experiments were performed essentially as described,[16],[18] with slight modifications. In brief, 8 × 10^4 PANC-1 cells were seeded overnight on circular no. 1.5 coverslips per well in 12-well plates. Next day, cells were incubated with 400 nM CM03 (or left untreated) in 1 mL of media at 37 °C for 6 and 24 h and then fixed with 4 (v/v) % freshly prepared paraformaldehyde in 1× PBS for 10 min at RT. Coverslips were washed 1× PBS, permeabilized with 0.1% (v/v) Triton-X100 in PBS for 10 min, washed with 1× PBS, and blocked with 2% (w/v) Marvel milk (Premier Foods plc) in PBS for 1 h at 37 °C. After blocking, coverslips were incubated with BG4 (20 nM) at 37 °C for 1 h, washed three times for 5 min with PBST (0.1% (v/v) Tween 20), and then incubated with 37 °C for 1 h with rabbit α-FLAG 1:800 (CST, catalogue no. 2368) and mouse α-53BP1 1:500 (Millipore, catalogue no. MAB2803). […] Fluorescence illumination was with a xenon source and FITC, Cy5, and DAPI fluorescent filter cubes used to image BG4, 53BP1, and the nuclei, respectively. […] See extended methods, immunofluorescence, for the custom protocol designed for the BG4-53BP1 foci quantification and co-localization method. […]
# For the putative G4 sequences (PQs) analysis, the occurrence of the canonical G4 motif (G≥3N1-7G≥3+N1-7G3≥N1-7G≥3), as previously defined 2,3, was calculated both in gene promoters (defined as 2 kilobases upstream of the transcription start site (TSS) and 100 bases downstream ) and gene bodies (exons and introns). […]
# [1] = Aqueous solubility and pH of the salt; type: physicochemical
# From the text: The synthetic approach to the trisubstituted series adapts previously published procedures to simplify purification and increase yields of both intermediates and final compounds (Scheme 1). 5,5-Dimethyl-1,3-dibromohydantoin was used for the regioselective bromination of the starting material, enabling more efficient and convenient purification. The separation of final products was achieved using column chromatography, giving a 26% overall yield for CM03.
# CM03 was then converted to a mixed hydrochloride/formate salt in order to enhance its aqueous solubility. At a concentration of 5 mg/mL, the pH of the CM03 salt solution was 6.95.
smiles,measurement,setting,value
"O=C1c2ccc3c4c(c(NCCN5CCCC5)cc(c24)C(=O)N1CCCN1CCOCC1)C(=O)N(CCCN1CCOCC1)C3=O [CM03, 2,7-bis(3-morpholinopropyl)-4-((2-(pyrrolidin-1-yl)ethyl)amino)benzo[lmn][3,8]phenanthroline-1,3,6,8(2H,7H)-tetraone]",number of nuclear BG4 foci,"PANC-1 cells; 400 nM CM03, 6 h",393 ± 13
same,number of 53BP1 foci,"PANC-1 cells; 400 nM CM03, 24 h",21 ± 3
same,number of nuclear BG4 foci,"PANC-1 cells; 400 nM CM03, 24 h",444 ± 39
same,total BG4 foci per nucleus associated with DNA damage foci,"PANC-1 cells; 400 nM CM03, 24 h",1.4%
same,pH of mixed chloride/formate salt,[1],6.9
same,pH of the CM03 salt solution,"[1]; concentration of 5 mg/mL, mixed hydrochloride/formate salt",6.95
